Data taken from patent publication US9695151B2, “3,4-dihydro-2H-isoquinoline-1-one and 2,3-dihydro-isoindol-1-one compounds” (Hoffmann-La Roche Inc., priority 2013, dated 2017).

How the values were obtained:
[1] = test system: rat model of chronic kidney disease; conditions: cited from earlier work; for cardiac and aortic medial hypertrophy / renal effects (albuminuria, azotemia, renovascular hypertrophy, glomerular injury, PAI-1 and osteopontin mRNA, tubulointerstitial fibrosis): angiotensin II and high salt treatment; for angiotensin II and salt-stimulated PAI-1 mRNA expression: aorta and heart
[2] = test system: rats with experimental heart failure; conditions: rat, in vivo; cited from earlier work
CYP11B2 [3] = biological target: T1, CYP11B2 (Homo sapiens (Human), UniProt P19099); conditions: patients with primary aldosteronism, oral; cited from earlier work
T1 sequence (P19099 25-503): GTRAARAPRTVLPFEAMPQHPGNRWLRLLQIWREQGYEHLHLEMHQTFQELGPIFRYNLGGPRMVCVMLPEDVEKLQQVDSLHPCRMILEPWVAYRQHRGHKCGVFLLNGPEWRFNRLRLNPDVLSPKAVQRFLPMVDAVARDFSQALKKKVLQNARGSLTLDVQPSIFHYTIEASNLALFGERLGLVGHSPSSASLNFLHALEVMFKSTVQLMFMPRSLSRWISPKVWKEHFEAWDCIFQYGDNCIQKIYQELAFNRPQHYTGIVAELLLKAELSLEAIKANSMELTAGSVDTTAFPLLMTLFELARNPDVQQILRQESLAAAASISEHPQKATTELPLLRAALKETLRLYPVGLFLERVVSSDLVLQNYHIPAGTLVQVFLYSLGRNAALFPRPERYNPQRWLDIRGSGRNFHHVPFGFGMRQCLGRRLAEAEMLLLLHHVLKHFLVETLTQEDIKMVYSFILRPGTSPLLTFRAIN

CYP11B2 [4] = biological target: T1, CYP11B2; test: G-402 cellular enzyme assay, human CYP11B2 (aldosterone release); assay type: cell-based; conditions: G-402 cells, 1 μM Deoxycorticosterone
Source text: (§1) Herein we identified the use of the G-402 cell line as a host cell to ectopically express (transiently or stably) enzymes of the CYP11 family. Specifically we developed stable G-402 cells expressing ectopically human CYP11B1, human CYP11B2, human CYP11A1, cynmolgus CYP11B1 or cynomolgus CYP11B2 enzyme activity. Importantly the identified cell line G-402 expresses co-factors (adrenodoxin and adrenodoxin reductase) important for the activity of the CYP11 family and no relevant enzyme activity of the CYP11 family (in comparison to H295R cells) was detected in these cells. Therefore the G-402 cell line is uniquely suited as a host cell for the ectopic expression of enzymes from the CYP11 family.
(§2) G-402 cells can be obtained from ATCC (CRL-1440) and were originally derived from a renal leiomyoblastoma.
(§3) The expression plasmids contains the ORF for either human/cyno CYP11B1 or CYP11B2 under the control of a suitable promoter (CMV-promoter) and a suitable resistance marker (neomycin). Using standard techniques the expression plasmid is transfected into G-402 cells and these cells are then selected for expressing the given resistance markers. Individual cell-clones are then selected and assessed for displaying the desired enzymatic activity using 11-Deoxycorticosterone (Cyp11B2) or 11-Deoxycortisol (Cyp11B1) as a substrate.
(§4) G-402 cells expressing CYP11 constructs were established as described above and maintained in McCoy's 5a Medium Modified, ATCC Catalog No. 30-2007 containing 10% FCS and 400 μg/ml G418 (Geneticin) at 37° C. under an atmosphere of 5% CO2/95% air. Cellular enzyme assays were performed in DMEM/F12 medium containing 2.5% charcoal treated FCS and appropriate concentration of substrate (0.3-10 uM 11-Deoxycorticosterone, 11-Deoxycortisol or Corticosterone). For assaying enzymatic activity, cells were plated onto 96 well plates and incubated for 16 h. An aliquot of the supernatant is then transferred and analyzed for the concentration of the expected product (Aldosterone for CYP11B2; Cortisol for CYP11B1). The concentrations of these steroids can be determined using HTRF assays from CisBio analyzing either Aldosterone or Cortisol.
(§5) Inhibition of the release of produced steroids can be used as a measure of the respective enzyme inhibition by test compounds added during the cellular enzyme assay. The dose dependent inhibition of enzymatic activity by a compound is calculated by means of plotting added inhibitor concentrations (x-axes) vs. measured steroid/product level (y-axes). The inhibition is then calculated by fitting the following 4-parameter sigmoidal function (Morgan-Mercer-Flodin (MMF) model) to the raw data points using the least squares method:
(§6) [formula] wherein, A is the maximum y value, B is the EC50 factor determined using XLFit, C is the minimum y value and D is the slope value.
(§7) EC50 values for compounds claimed herein were tested with the G402-based assay system described. Cyp11B2 enzyme activity was tested in presence of 1 μM Deoxycorticosterone and variable amounts of inhibitors; Cyp11B1 enzyme activity was tested in presence of 1 μM Deoxycortisol and variable amounts of inhibitors.

human CYP11B1 = human CYP11B1 (Homo sapiens (Human), UniProt P15538); test: G-402 cellular enzyme assay, human CYP11B1 (cortisol release); assay type: cell-based; conditions: G-402 cells, 1 μM Deoxycortisol
Sequence of human CYP11B1 (P15538 25-503): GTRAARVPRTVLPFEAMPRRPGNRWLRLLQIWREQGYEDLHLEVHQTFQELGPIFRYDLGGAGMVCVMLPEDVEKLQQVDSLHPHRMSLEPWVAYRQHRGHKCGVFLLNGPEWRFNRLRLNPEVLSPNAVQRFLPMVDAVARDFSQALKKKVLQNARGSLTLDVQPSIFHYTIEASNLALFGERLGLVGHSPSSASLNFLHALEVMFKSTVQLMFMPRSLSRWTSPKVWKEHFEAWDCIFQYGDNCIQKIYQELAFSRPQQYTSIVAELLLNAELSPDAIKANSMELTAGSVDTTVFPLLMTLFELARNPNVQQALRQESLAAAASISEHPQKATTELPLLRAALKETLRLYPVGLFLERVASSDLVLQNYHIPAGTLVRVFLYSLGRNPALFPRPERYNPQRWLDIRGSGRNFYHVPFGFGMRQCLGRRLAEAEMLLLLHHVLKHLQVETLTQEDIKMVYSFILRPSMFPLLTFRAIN
Source text: as §1, §2, §3, §4, §5, §6, §7

Row | SMILES | EC50 (CYP11B2 [4]) [nM] | EC50 (human CYP11B1) [nM] | also measured
1 | N#Cc1ccc([C@H]2CCCc3cncn32)cc1 [FAD286] |  |  | cardiac and aortic medial hypertrophy [1]: attenuated; renal effects (albuminuria, azotemia, renovascular hypertrophy, glomerular injury, PAI-1 and osteopontin mRNA, tubulointerstitial fibrosis) [1]: prevented; angiotensin II and salt-stimulated PAI-1 mRNA expression [1]: not; plasma aldosterone ([1]; following 4 weeks of treatment): reduced; blood pressure and cardiovascular function and structure [2]: improved; kidney function and morphology [2]: improve
2 | N#Cc1ccc([C@H]2CCc3cncn32)c(F)c1 [LCI699] |  |  | blood pressure (CYP11B2 [3]): mildly decreased; circulating aldosterone levels (CYP11B2 [3]): significantly lower; hypokalemia (CYP11B2 [3]): corrected; selectivity (effects on the glucocorticoid axis) (CYP11B2 [3]): poor selectivity
3 | CC(=O)S[C@@H]1CC2=CC(=O)CC[C@]2(C)[C@H]2CC[C@@]3(C)[C@@H](CC[C@@]34CCC(=O)O4)[C@H]12 [spironolactone] |  |  | cardiac and aortic medial hypertrophy [1]: attenuated; renal effects (albuminuria, azotemia, renovascular hypertrophy, glomerular injury, PAI-1 and osteopontin mRNA, tubulointerstitial fibrosis) [1]: prevented; angiotensin II and salt-stimulated PAI-1 mRNA expression [1]: enhanced; aldosterone ([1]; at 4 and 8 weeks of treatment): increased
4 | CCS(=O)(=O)N1CC(Nc2cncc(N3C(=O)c4ccc(Cl)cc4[C@H]3C)c2)C1 (single isomer, unassigned) [Example 41, (3R or 3S)-5-Chloro-2-[5-[(1-ethylsulfonylazetidin-3-yl)amino]-3-pyridyl]-3-methyl-isoindolin-1-one] | 39 | 10900 | 
5 | CCC(=O)N1CCC(Nc2cncc(N3C(=O)c4ccc(C#N)cc4C3(C)C)c2)CC1 [Example 44, 3,3-Dimethyl-1-oxo-2-[5-[(1-propanoyl-4-piperidyl)amino]-3-pyridyl]isoindoline-5-carbonitrile] | 22 | 6990 | 
6 | CC(C)S(=O)(=O)N1CC(N(C)c2cncc(N3C(=O)c4ccc(Cl)cc4C3(C)C)c2)C1 [Example 13, 5-Chloro-3,3-dimethyl-2-[5-[methyl-(1-propan-2-ylsulfonylazetidin-3-yl)amino]pyridin-3-yl]isoindol-1-one] | 0.5 | 37 | 
7 | CCC(=O)N1CC2(CC(Nc3cncc(N4C(=O)c5ccc(Cl)cc5C4(C)C)c3)C2)C1 [Example 36, 5-Chloro-3,3-dimethyl-2-[5-[(2-propanoyl-2-azaspiro[3.3]heptan-6-yl)amino]pyridin-3-yl]isoindol-1-one] | 44 | 15400 | 
8 | CCC(=O)N1CC(Nc2cncc(N3Cc4cc(Cl)ccc4C3=O)c2)C1 [Example 28, 5-Chloro-2-[5-[(1-propanoylazetidin-3-yl)amino]pyridin-3-yl]-3H-isoindol-1-one] | 954 | > 30000 | 
9 | CCS(=O)(=O)N1CC(Nc2cncc(N3C(=O)c4ccc(Cl)cc4[C@@H]3C)c2)C1 (single isomer, unassigned) [Example 42, (3S or 3R)-5-Chloro-2-[5-[(1-ethylsulfonylazetidin-3-yl)amino]-3-pyridyl]-3-methyl-isoindolin-1-one] | 12 | 1070 | 
10 | CC(C)S(=O)(=O)N1CCC(N(C)c2cncc(N3C(=O)c4ccc(Cl)cc4C3(C)C)c2)C1 (single isomer, unassigned) [Example 15, 5-Chloro-3,3-dimethyl-2-[5-[methyl-[(3S or 3R)-1-propan-2-ylsulfonylpyrrolidin-3-yl]amino]pyridin-3-yl]isoindol-1-one] | 1 | 732 | 
